Experimental data reported in patent US11697648B2, “Fused pyrimidine pyridinone compounds as JAK inhibitors” (THERAVANCE BIOPHARMA R&D IP, LLC, priority 2019, dated 2023).

Legend:
JAK1 = JAK1 (Homo sapiens (Human), UniProt P23458); assay: Biochemical JAK1 kinase assay (LanthaScreen)
Outline: (§1)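 GST-JAK + GFP-STAT1 peptide, HEPES pH 7.5/MgCl2/EGTA/Brij-35 buffer; cpd preincubation 1 h RT; ATP start, 1 h RT; stop with 10 mM EDTA + 2 nM Tb-anti-pSTAT1; TR-FRET 520/495. 4-parameter IC50 → pKi (Cheng-Prusoff).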

JAK2 = JAK2 (Homo sapiens (Human), UniProt O60674); assay: Biochemical JAK2 kinase assay (LanthaScreen)
Outline: as §1

JAK3 = JAK3 (Homo sapiens (Human), UniProt P52333); assay: Biochemical JAK3 kinase assay (LanthaScreen); settings: for JAK3 (pKi)-JAK1 (pKi): selectivity JAK3 over JAK1, difference of pKi
Outline: as §1

Tyk2 = Tyk2 (Homo sapiens (Human), UniProt P29597); assay: Biochemical Tyk2 kinase assay (LanthaScreen)
Outline: as §1

[1] = test system: IL-2 stimulated STAT5 phosphorylation in Tall-1 human T cell line (JAK3); assay: Cellular JAK3 potency assay: inhibition of IL-2 stimulated pSTAT5 in Tall-1 T cells; assay type: cell-based; settings: IL-2 stimulated pSTAT5, Tall-1 T cells
Outline: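 Tall-1 cells, 45,000 per well, preincubated 1 hour with compound at 37 °C, then stimulated 30 minutes with IL-2 at 300 ng/ml final. pSTAT5 (Tyr694/699) in lysates quantified by AlphaLISA SureFire Ultra. pIC50 derived from inhibition curves, given as mean with SD.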

Caco-2 cell monolayers = assay: Caco-2 permeation assay; assay type: in vitro ADME; settings: 5 μM, A-B direction, with Verapamil (25 μM)
Outline: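 Compounds tested at 5 μM in duplicate across Caco-2 monolayers, apical-to-basolateral, with 25 μM verapamil to block P-gp, at 37° C., 5% CO2. Apical and basal samples taken at 0 and 120 min, analysed by LC-MS/MS; Papp (cm/sec) calculated as dQ/(dt×Area×concentration).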

Chain of JAK1 (P23458 whole entry): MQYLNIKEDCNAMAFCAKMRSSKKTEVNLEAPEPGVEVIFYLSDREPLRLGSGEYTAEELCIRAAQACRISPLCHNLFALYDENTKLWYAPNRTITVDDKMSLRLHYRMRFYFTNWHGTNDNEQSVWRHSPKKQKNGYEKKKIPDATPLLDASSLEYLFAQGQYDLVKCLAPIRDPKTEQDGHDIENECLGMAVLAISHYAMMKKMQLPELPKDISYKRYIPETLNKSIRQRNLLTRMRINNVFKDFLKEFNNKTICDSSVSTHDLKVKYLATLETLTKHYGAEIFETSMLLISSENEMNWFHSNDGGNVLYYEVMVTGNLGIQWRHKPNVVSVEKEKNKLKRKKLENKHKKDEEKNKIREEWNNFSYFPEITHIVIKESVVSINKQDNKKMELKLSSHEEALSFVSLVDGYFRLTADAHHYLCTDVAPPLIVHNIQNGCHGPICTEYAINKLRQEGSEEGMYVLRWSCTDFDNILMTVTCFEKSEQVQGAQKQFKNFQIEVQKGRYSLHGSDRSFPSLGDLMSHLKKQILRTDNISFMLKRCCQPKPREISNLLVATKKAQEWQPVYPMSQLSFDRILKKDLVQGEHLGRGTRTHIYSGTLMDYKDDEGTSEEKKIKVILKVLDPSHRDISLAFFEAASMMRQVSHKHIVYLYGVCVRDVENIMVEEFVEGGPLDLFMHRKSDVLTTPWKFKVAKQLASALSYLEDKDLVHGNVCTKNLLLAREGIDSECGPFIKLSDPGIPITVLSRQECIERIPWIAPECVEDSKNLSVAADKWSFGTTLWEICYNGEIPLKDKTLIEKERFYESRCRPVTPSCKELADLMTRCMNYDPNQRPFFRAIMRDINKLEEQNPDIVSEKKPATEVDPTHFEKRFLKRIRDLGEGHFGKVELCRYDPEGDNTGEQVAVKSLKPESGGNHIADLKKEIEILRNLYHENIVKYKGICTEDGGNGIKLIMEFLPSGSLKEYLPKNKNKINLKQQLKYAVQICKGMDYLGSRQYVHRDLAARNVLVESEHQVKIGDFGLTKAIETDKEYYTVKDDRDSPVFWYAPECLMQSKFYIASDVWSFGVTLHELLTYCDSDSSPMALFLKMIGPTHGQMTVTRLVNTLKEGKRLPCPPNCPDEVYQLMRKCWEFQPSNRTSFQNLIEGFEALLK
Chain of JAK2 (O60674 whole entry): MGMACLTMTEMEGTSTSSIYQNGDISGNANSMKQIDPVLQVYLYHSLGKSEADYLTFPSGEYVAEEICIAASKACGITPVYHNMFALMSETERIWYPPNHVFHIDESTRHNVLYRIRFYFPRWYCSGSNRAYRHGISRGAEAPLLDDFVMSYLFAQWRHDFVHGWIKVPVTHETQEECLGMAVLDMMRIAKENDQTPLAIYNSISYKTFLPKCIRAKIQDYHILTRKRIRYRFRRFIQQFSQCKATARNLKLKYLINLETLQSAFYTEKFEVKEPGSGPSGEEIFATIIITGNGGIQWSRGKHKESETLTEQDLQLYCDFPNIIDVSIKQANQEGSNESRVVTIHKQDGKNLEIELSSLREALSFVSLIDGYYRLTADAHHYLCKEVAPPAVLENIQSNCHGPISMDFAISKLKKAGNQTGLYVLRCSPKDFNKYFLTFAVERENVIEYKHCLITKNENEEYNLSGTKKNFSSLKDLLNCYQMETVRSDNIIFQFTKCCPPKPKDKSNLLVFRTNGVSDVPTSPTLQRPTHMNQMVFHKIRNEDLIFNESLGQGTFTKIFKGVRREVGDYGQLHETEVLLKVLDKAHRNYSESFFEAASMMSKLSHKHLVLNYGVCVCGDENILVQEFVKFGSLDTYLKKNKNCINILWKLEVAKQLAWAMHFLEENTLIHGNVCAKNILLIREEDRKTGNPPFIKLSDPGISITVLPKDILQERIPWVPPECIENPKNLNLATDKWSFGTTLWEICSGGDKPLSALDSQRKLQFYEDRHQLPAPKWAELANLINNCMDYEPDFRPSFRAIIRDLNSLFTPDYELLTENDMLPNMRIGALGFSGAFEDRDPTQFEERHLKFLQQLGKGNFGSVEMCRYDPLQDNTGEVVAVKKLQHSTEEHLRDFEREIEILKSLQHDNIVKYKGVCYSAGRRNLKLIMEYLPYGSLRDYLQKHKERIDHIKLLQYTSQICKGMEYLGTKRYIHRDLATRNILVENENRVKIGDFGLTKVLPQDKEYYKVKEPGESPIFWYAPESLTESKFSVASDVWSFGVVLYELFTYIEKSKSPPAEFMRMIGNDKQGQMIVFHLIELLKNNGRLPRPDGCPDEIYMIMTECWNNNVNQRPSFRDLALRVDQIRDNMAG
Chain of Tyk2 (P29597 whole entry): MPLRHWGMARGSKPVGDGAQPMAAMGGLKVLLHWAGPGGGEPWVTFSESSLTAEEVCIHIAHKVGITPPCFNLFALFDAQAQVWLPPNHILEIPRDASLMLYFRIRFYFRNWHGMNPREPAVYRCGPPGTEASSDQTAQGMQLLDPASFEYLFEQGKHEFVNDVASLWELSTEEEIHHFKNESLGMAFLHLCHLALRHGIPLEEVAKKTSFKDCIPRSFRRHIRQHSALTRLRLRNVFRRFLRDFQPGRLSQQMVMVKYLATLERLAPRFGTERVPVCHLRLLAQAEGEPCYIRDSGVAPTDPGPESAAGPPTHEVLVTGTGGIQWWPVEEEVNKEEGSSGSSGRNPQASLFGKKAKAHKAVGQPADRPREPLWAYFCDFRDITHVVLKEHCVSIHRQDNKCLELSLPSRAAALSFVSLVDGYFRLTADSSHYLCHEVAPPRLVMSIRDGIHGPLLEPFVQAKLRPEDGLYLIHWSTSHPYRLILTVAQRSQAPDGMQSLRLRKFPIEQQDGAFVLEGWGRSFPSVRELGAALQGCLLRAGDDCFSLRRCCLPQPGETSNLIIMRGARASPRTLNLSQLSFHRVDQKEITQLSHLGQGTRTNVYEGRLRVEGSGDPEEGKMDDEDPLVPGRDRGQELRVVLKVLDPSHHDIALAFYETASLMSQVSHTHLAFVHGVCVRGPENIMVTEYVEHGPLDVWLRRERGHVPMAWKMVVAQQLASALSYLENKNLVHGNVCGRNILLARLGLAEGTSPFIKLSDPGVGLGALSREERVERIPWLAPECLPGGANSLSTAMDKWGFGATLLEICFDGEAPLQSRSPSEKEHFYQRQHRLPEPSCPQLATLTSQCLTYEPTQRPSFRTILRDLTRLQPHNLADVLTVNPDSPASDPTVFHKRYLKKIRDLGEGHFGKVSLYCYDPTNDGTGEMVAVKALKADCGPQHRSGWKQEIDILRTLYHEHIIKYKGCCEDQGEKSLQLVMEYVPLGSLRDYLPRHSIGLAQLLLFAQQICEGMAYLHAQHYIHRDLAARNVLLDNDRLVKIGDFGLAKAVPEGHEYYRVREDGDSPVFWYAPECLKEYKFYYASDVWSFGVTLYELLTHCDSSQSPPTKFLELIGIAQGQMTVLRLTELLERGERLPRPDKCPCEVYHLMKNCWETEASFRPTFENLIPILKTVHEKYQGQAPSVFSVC
Chain of JAK3 (P52333 whole entry): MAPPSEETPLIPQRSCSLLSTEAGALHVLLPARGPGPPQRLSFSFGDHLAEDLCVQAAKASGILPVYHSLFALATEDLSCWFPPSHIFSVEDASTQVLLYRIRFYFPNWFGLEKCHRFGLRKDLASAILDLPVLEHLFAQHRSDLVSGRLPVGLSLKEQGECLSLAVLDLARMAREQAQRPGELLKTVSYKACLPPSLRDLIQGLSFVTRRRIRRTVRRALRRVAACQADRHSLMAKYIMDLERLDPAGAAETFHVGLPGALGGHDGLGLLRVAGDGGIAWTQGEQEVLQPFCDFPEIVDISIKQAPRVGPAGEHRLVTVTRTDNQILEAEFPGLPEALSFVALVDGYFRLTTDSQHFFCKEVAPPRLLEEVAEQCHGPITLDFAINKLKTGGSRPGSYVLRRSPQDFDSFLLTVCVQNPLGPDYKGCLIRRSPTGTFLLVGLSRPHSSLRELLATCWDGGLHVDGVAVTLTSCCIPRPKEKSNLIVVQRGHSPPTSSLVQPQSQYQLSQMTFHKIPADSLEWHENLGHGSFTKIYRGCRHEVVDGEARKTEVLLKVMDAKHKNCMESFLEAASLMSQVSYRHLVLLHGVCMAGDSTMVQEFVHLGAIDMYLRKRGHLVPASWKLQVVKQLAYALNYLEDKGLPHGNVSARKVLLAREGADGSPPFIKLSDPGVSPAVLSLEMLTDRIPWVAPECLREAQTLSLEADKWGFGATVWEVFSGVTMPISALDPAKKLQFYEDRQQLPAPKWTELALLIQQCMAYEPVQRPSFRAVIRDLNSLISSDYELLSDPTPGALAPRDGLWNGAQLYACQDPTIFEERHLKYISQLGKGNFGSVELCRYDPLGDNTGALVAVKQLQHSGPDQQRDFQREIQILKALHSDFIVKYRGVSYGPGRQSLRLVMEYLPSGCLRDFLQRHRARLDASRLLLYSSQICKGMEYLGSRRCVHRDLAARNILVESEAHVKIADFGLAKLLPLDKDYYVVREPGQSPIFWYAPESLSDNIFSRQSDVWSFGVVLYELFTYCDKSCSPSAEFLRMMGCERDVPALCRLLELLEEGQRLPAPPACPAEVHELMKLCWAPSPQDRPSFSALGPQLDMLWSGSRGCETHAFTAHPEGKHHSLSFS

Structure (SMILES) | JAK 1 (pKi) (JAK1) | JAK 2 (pKi) (JAK2) | JAK 3 (pKi) (JAK3) | JAK3 (pKi)-JAK1 (pKi) (JAK3) | Tyk 2 (pKi) (Tyk2) | Tall-1 (pIC50) [1] | Caco Kp (Caco-2 cell monolayers)
C=CC(=O)N1CC(CCn2c(=O)ccc3cnc(Nc4ccc(N5CCN(S(=O)(=O)CC#N)CC5)cc4)nc32)C1 [Example 101] | E (E represents a pKi value of 7 or below (Ki of 100 nM or above)) | E (E represents a pKi value of 7 or below (Ki of 100 nM or above)) | A (A represents a pKi value≥10 (Ki≤0.1 nM)) | A (A represents a value of 3 or above) | E (E represents a pKi value of 7 or below (Ki of 100 nM or above)) | B (B represents a pC50 value between 6.7 (included) and 7.5 (IC50 between 200 nM and 32 nM)) | A (A represents a value below 5×10^−6 cm/sec)
C=CC(=O)N1CC(CCn2c(=O)ccc3cnc(Nc4ccc(N5CCN(C(=O)[C@@H](C)O)CC5)cc4)nc32)C1 [Example 105] | E (E represents a pKi value of 7 or below (Ki of 100 nM or above)) | E (E represents a pKi value of 7 or below (Ki of 100 nM or above)) | A (A represents a pKi value≥10 (Ki≤0.1 nM)) | A (A represents a value of 3 or above) | E (E represents a pKi value of 7 or below (Ki of 100 nM or above)) | B (B represents a pC50 value between 6.7 (included) and 7.5 (IC50 between 200 nM and 32 nM)) | A (A represents a value below 5×10^−6 cm/sec)
C=CC(=O)N1CC(CCn2c(=O)ccc3cnc(Nc4ccc(N5CCN(C(=O)[C@H](C)O)CC5)cc4)nc32)C1 [Example 106] | E (E represents a pKi value of 7 or below (Ki of 100 nM or above)) | E (E represents a pKi value of 7 or below (Ki of 100 nM or above)) | A (A represents a pKi value≥10 (Ki≤0.1 nM)) | A (A represents a value of 3 or above) | E (E represents a pKi value of 7 or below (Ki of 100 nM or above)) | B (B represents a pC50 value between 6.7 (included) and 7.5 (IC50 between 200 nM and 32 nM)) | A (A represents a value below 5×10^−6 cm/sec)
C=CC(=O)N1CC(CCn2c(=O)ccc3cnc(Nc4cccc(N5CCN(C(=O)COC)CC5)c4)nc32)C1 [Example 108] | E (E represents a pKi value of 7 or below (Ki of 100 nM or above)) | E (E represents a pKi value of 7 or below (Ki of 100 nM or above)) | B (B represents pKi value between 9 and 10 (Ki between 1 nM and 0.1 nM)) | A (A represents a value of 3 or above) | E (E represents a pKi value of 7 or below (Ki of 100 nM or above)) | B (B represents a pC50 value between 6.7 (included) and 7.5 (IC50 between 200 nM and 32 nM)) | A (A represents a value below 5×10^−6 cm/sec)
C=CC(=O)N1CC(CCn2c(=O)ccc3cnc(Nc4ccc(N5CCN(C(=O)C(F)(F)F)CC5)cc4)nc32)C1 [Example 109] | D (D represents a pKi value between 7 and 8 (Ki between 100 nM and 10 nM)) | E (E represents a pKi value of 7 or below (Ki of 100 nM or above)) | B (B represents pKi value between 9 and 10 (Ki between 1 nM and 0.1 nM)) | B (B represents a value of 2.5 to 3) | E (E represents a pKi value of 7 or below (Ki of 100 nM or above)) | B (B represents a pC50 value between 6.7 (included) and 7.5 (IC50 between 200 nM and 32 nM)) | C (C represents a value between 10×10^−6 and 30×10^−6 cm/sec)
C=CC(=O)N1CC(CCn2c(=O)ccc3cnc(Nc4ccc(N5CCN(CCOCC)CC5)cc4)nc32)C1 [Example 117] | E (E represents a pKi value of 7 or below (Ki of 100 nM or above)) | E (E represents a pKi value of 7 or below (Ki of 100 nM or above)) | A (A represents a pKi value≥10 (Ki≤0.1 nM)) | A (A represents a value of 3 or above) | E (E represents a pKi value of 7 or below (Ki of 100 nM or above)) | A (A represents a pIC50 value≥7.5 (IC50≤32 nM)) | C (C represents a value between 10×10^−6 and 30×10^−6 cm/sec)
C=CC(=O)N1CC(CCn2c(=O)ccc3cnc(Nc4cccc(N5CCN(C(=O)OC)CC5)c4)nc32)C1 [Example 123] | E (E represents a pKi value of 7 or below (Ki of 100 nM or above)) | E (E represents a pKi value of 7 or below (Ki of 100 nM or above)) | B (B represents pKi value between 9 and 10 (Ki between 1 nM and 0.1 nM)) | A (A represents a value of 3 or above) | E (E represents a pKi value of 7 or below (Ki of 100 nM or above)) | B (B represents a pC50 value between 6.7 (included) and 7.5 (IC50 between 200 nM and 32 nM)) | C (C represents a value between 10×10^−6 and 30×10^−6 cm/sec)
C=CC(=O)N1CC(CCn2c(=O)ccc3cnc(Nc4cccc(N5CCN(C(=O)N(C)C)CC5)c4)nc32)C1 [Example 124] | E (E represents a pKi value of 7 or below (Ki of 100 nM or above)) | E (E represents a pKi value of 7 or below (Ki of 100 nM or above)) | A (A represents a pKi value≥10 (Ki≤0.1 nM)) | A (A represents a value of 3 or above) | E (E represents a pKi value of 7 or below (Ki of 100 nM or above)) | B (B represents a pC50 value between 6.7 (included) and 7.5 (IC50 between 200 nM and 32 nM)) | B (B represents a value between 5×10^−6 and 10×10^−6 cm/sec)
C=CC(=O)N1CC(CCn2c(=O)ccc3cnc(Nc4cccc(CN5CCN(S(=O)(=O)CC#N)CC5)c4)nc32)C1 [Example 125] | E (E represents a pKi value of 7 or below (Ki of 100 nM or above)) | E (E represents a pKi value of 7 or below (Ki of 100 nM or above)) | A (A represents a pKi value≥10 (Ki≤0.1 nM)) | A (A represents a value of 3 or above) | E (E represents a pKi value of 7 or below (Ki of 100 nM or above)) | B (B represents a pC50 value between 6.7 (included) and 7.5 (IC50 between 200 nM and 32 nM)) | B (B represents a value between 5×10^−6 and 10×10^−6 cm/sec)
C=CC(=O)N1CC(CCn2c(=O)ccc3cnc(Nc4cccc(N5CCN(S(C)(=O)=O)CC5)c4)nc32)C1 [Example 127] | E (E represents a pKi value of 7 or below (Ki of 100 nM or above)) | E (E represents a pKi value of 7 or below (Ki of 100 nM or above)) | A (A represents a pKi value≥10 (Ki≤0.1 nM)) | A (A represents a value of 3 or above) | E (E represents a pKi value of 7 or below (Ki of 100 nM or above)) | B (B represents a pC50 value between 6.7 (included) and 7.5 (IC50 between 200 nM and 32 nM)) | A (A represents a value below 5×10^−6 cm/sec)
C=CC(=O)N1CCN(CCn2c(=O)ccc3cnc(Nc4ccc(N5CCN(S(C)(=O)=O)CC5)cc4)nc32)CC1 [Example 130] | E (E represents a pKi value of 7 or below (Ki of 100 nM or above)) | E (E represents a pKi value of 7 or below (Ki of 100 nM or above)) | B (B represents pKi value between 9 and 10 (Ki between 1 nM and 0.1 nM)) | A (A represents a value of 3 or above) | E (E represents a pKi value of 7 or below (Ki of 100 nM or above)) | B (B represents a pC50 value between 6.7 (included) and 7.5 (IC50 between 200 nM and 32 nM)) | A (A represents a value below 5×10^−6 cm/sec)
